Assay results from publication PMC4302242 (Psychopharmacology, 2014).
Non-standard residues stand in square brackets, D forms with d. Residues, ends and D or L forms follow the SMILES beside them.

Columns and labels:
human TREK-1 channel [1] = target: T1, human TREK-1 channel (Homo sapiens, UniProt O95069); experiment: cell-based
Experimental: (§1) The human-TREK-1/HEK293 cell line (h-TREK-1/HEK) (Moha ou Maati et al. [2011a]) and HEK-IKS cell line (Ducroq et al. [2010]) were grown in the presence of 0.5 mg/mL G418 in Dulbecco’s modified Eagle’s medium supplemented with 10 % (v/v) heat-inactivated fetal bovine serum containing 1 % (v/v) penicillin/streptomycin in an atmosphere of 95 % air/5 % CO2 as previously described (Moha ou Maati et al. [2011a]).
(§2) All electrophysiological experiments were performed on h-TREK-1/HEK cells seeded at a density of 20,000 cells/35 mm dish after 2–6 days of culture. All electrophysiological recordings were performed in whole cell configuration of the patch clamp technique except for IKS measures which were obtained by using the patch clamp perforated configuration (amphotericin B 0.9 mg/mL in the pipette medium) (Moha ou Maati et al. [2011b]). Each current was evaluated by using a RK 400 patch clamp amplifier (Axon Instrument, USA), low-pass filtered at 3 kHz, and digitized at 10 kHz using a 12-bit analog-to-digital converter digidata (1322 series, Axon Instrument, USA). All current amplitudes are expressed in current densities. Results are expressed as mean ± standard error of the mean (SEM). […] The bath solution contained (in mM) 150 NaCl, 5 KCl, 3 MgCl2, 1 CaCl2, and 10 4-(2-hydroxyethyl)piperazine 1- ethane sulfonic acid (HEPES) adjusted to pH 7.4 with NaOH. The pipette solution contained (in mM) 155 KCl, 3 MgCl2, 5 EGTA, and 10 HEPES adjusted to pH 7.2 with KOH. TREK-1 currents were evaluated at room temperature (21–22 °C) in the presence of a cocktail of potassium channel inhibitors (K^+ blockers, 3 mM 4-aminopyridine (4-AP), 10 mM tetraethylammonium (TEA), 10 μM glibenclamide, 100 nM apamin, and 50 nM charybdotoxin). Stimulation protocols and data acquisition were carried out using a microcomputer (Dell Pentium) with a commercial software and hardware (pClamp 8.2). Currents were recorded by voltage clamp steps to membrane potentials of −100 to +60 mV in 20-mV steps applied from a holding potential of −80 mV. The duration of depolarization pulses was 825 ms, and the pulse cycling rate was 5 s. TREK-1 current amplitudes were evaluated at the end of stimulation pulses. Cells were continuously superfused with microperfusion system.
(§3) All experiments were performed on h-TREK-1/HEK cell line in the presence of a mixture of K^+ channels blockers and by using the whole cell configuration of the patch clamp technique. a Control currents (black-filled circles, K^+ blockers) were amplified by the application of 10 μM of arachidonic acid (white-filled circles, K^+ blockers + AA).

human TREK-1 channel [2] = target: T1, human TREK-1 channel; conditions: h-TREK-1/HEK cells, current at 0 mV, n = 10 to 12
Experimental: as §1, §2, §3

C57Bl/6J mice [3] = conditions: for FST immobility time, subchronic treatment: 10 μg/kg i.v. once a day for 4 days, test on day 5, mean ± SEM, saline 161.80 ± 8.12 s; for FST immobility time, acute treatment: 10 μg/kg single i.v. bolus, 30 min before the test, saline 166.13 ± 5.54 s; for FST immobility time, acute treatment / FST immobility time 1 h after injection (action duration): n = 10, mean ± SEM; for FST immobility time 1 h after injection (action duration): naïve mice at each time; for FST immobility time 1 h after injection (action duration) / FST immobility time 16 h after injection (action duration): saline 170.3 ± 4.5 s (spadin series), 162.7 ± 4.7 s (analog series); for FST immobility time 16 h after injection (action duration): naïve mice, mean ± SEM
Experimental: Naïve male C57Bl/6J mice from 7 to 9 weeks old were used in all experiments (Janvier Laboratory, Saint Berthevin, France). Mice were housed (10 animals per cage) under a 12:12 light–dark cycle (light on at 8:00 am) in a ventilated room at a temperature of 22 ± 1 °C. Animals had free access to water and food (A03; SAFE, Augy, France). All experiments were conducted according to policies on the care and use of laboratory animals of the Society for Neuroscience and also with respect to national laws on animal use.
(§4) For acute treatment, drugs were administered in a single 100-μL bolus 30 min prior to the beginning of the behavioral tests. For subchronic treatment, drugs were injected during four consecutive days, and behavioral tests were performed on day 5, without additional injection.
The animals were individually placed in a non-escapable cylinder (height 30 cm, diameter 15 cm) filled with 15-cm water at 22 ± 1 °C. The trial was conducted for 6 min. The total period of immobility was manually measured during the last 4 min of the test. A mouse was considered immobile when it remained floating with only slight movements to keep its head above water.

C57Bl/6J mice [4] = conditions: 10 μg/kg i.v. once a day for 4 days, test on day 5, mean ± SEM; saline 305.00 ± 62.47 s
Experimental: Naïve male C57Bl/6J mice from 7 to 9 weeks old were used in all experiments (Janvier Laboratory, Saint Berthevin, France). Mice were housed (10 animals per cage) under a 12:12 light–dark cycle (light on at 8:00 am) in a ventilated room at a temperature of 22 ± 1 °C. Animals had free access to water and food (A03; SAFE, Augy, France).
as §4
The NSF paradigm is a 2-day test protocol. On day 1, mice were deprived from food. On day 2, mice were placed in a highly brightly lit area, in a plastic box (45 × 45 × 20 cm), with a floor covered with wooden bedding. The test was carried out during a 10-min period. During this time, the latency to eat was measured. During the test, a single pellet of food was placed in the center of the box, on a white platform.

C57Bl/6J mice [5] = conditions: water bath 48 °C, 10 μg/kg i.v. 30 min before the test, n = 10 per group, two determinations averaged, mean ± SEM; saline 12.75 ± 0.96 s
Experimental: The tail was immersed in a water bath at 48 °C until withdrawal was observed (cutoff time 30 s). Two separate withdrawal latency time determinations were averaged (Alloui et al. [2006]).
For each mouse, the time to withdraw its tail immersed in a water bath at 48 °C was measured twice and averaged.

C57Bl/6J mice [6] = conditions: 10^-5 M in 100 μL bolus i.v. 30 min before the test, monitored 24 h, n = 8 per group
Experimental: Locomotor activity was monitored individually for 24 h using an infrared photobeam activity monitoring system (Imetronic, Pessac, France), which measured consecutive horizontal beam breaks. […] Locomotor activity was defined as breaking of consecutive photobeams. Movements were recorded and totalized for each 10-min time section. Six periods were pooled to obtain data for 1 h of time. Different movements were monitored: the coming-and-going between the back and the front of the cage, climbing, and other movements in the back or the front of the cage. Mice were kept under standard laboratory conditions: 12:12 light–dark cycle with free access to food and water during the experiment.
Mice were injected 30 min before to be placed in an infrared photobeam activity monitoring system. Spontaneous locomotor activity was monitored individually for 24 consecutive hours. The number of coming-and-going (a), climbing (b), and total movements except climbing (c) were monitored for each mouse for 10 min section and pooled by 6 to obtain values corresponding to 1 h.

C57Bl/6J mice [7] = conditions: kaïnate 25 mg/kg i.p.
Experimental: Kaïnate solutions were prepared in a solution of 140 mM NaCl (saline solution).
Mice (n = 10 per group) were monitored during 2 h for onset and extent of seizures. Six levels of seizure severity were defined: (1) immobility, (2) head/neck movements, (3) clonic unilateral activity, (4) clonic bilateral activity, (5) generalized convulsions, and (6) death. Seizure severity was blindly scored (Tsirka et al. [1995]). The seizure index was calculated by averaging the points for seizure activity in each group (n = 10 per treatment).

hERG channel (IKR) = hERG channel (IKR) (Homo sapiens, UniProt Q12809); conditions: 10 μM
Experimental: HEK-293 native cells were grown in serum in an atmosphere of 95 % air/5 % CO2 in Dulbecco’s modified Eagle’s medium supplemented with 10 % (v/v) heat-inactivated fetal bovine containing 1 % (v/v) of penicillin/ streptomycin and Glutamax X 1. Cells were plated at a density of 20,000 cells/35 mm dish, and after 24 h, cells were transfected using the Jet PEI method (Polyplus, France) with 25 ng/35 mm dish of p-IRES-HERG channel vector. Patch clamp experiments were carried out 48 h after transfection.
All electrophysiological recordings were performed in whole cell configuration of the patch clamp technique except for IKS measures which were obtained by using the patch clamp perforated configuration (amphotericin B 0.9 mg/mL in the pipette medium) (Moha ou Maati et al. [2011b]). Each current was evaluated by using a RK 400 patch clamp amplifier (Axon Instrument, USA), low-pass filtered at 3 kHz, and digitized at 10 kHz using a 12-bit analog-to-digital converter digidata (1322 series, Axon Instrument, USA). All current amplitudes are expressed in current densities. Results are expressed as mean ± standard error of the mean (SEM). […] The bath solution contained (in mM) 150 NaCl, 5 KCl, 3 MgCl2, 1 CaCl2, and 10 4-(2-hydroxyethyl)piperazine 1- ethane sulfonic acid (HEPES) adjusted to pH 7.4 with NaOH. The pipette solution contained (in mM) 155 KCl, 3 MgCl2, 5 EGTA, and 10 HEPES adjusted to pH 7.2 with KOH. […] Stimulation protocols and data acquisition were carried out using a microcomputer (Dell Pentium) with a commercial software and hardware (pClamp 8.2). Currents were recorded by voltage clamp steps to membrane potentials of −100 to +60 mV in 20-mV steps applied from a holding potential of −80 mV. The duration of depolarization pulses was 825 ms, and the pulse cycling rate was 5 s. […] Cells were continuously superfused with microperfusion system.
Tail currents were generated by repolarization to −40 mV. […] The amplitudes of IKS and IKR currents were calculated at both the end of the first pulse and the peak of the tail pulse.

human-IKS current = human-IKS current (Homo sapiens, UniProt P51787); conditions: 10 μM
Experimental: as §1
All electrophysiological recordings were performed in whole cell configuration of the patch clamp technique except for IKS measures which were obtained by using the patch clamp perforated configuration (amphotericin B 0.9 mg/mL in the pipette medium) (Moha ou Maati et al. [2011b]). Each current was evaluated by using a RK 400 patch clamp amplifier (Axon Instrument, USA), low-pass filtered at 3 kHz, and digitized at 10 kHz using a 12-bit analog-to-digital converter digidata (1322 series, Axon Instrument, USA). All current amplitudes are expressed in current densities. Results are expressed as mean ± standard error of the mean (SEM). […] The bath solution contained (in mM) 150 NaCl, 5 KCl, 3 MgCl2, 1 CaCl2, and 10 4-(2-hydroxyethyl)piperazine 1- ethane sulfonic acid (HEPES) adjusted to pH 7.4 with NaOH. The pipette solution contained (in mM) 155 KCl, 3 MgCl2, 5 EGTA, and 10 HEPES adjusted to pH 7.2 with KOH. […] Stimulation protocols and data acquisition were carried out using a microcomputer (Dell Pentium) with a commercial software and hardware (pClamp 8.2). […] Cells were continuously superfused with microperfusion system.
IKS currents were activated by voltage clamp steps of membrane potentials from −100 to +100 mV in 20-mV steps applied from a holding potential of −80 mV. Tail currents were generated by repolarization to −40 mV. Duration of both depolarization and repolarization pulses was 2.4 s, and the pulse cycling rate was 10 s. […] The amplitudes of IKS and IKR currents were calculated at both the end of the first pulse and the peak of the tail pulse.

C57Bl/6J mice [8] = conditions: 10 μg/kg i.v. for four consecutive days, hippocampal dentate gyrus
Experimental: One day after 5-bromo-2′-deoxyuridine (BrdU) injections, 12 mg per animal divided in four bolus of 300 μL injected every 2 h, mice were anesthetized with isoflurane and transcardially perfused with 20 mL of NaCl 0.9 % followed by 20 mL paraformaldehyde 4 %/NaCl 0.9 %. By using a vibratome (Leica), brains were cut into 40-μm sections, throughout the entire hippocampus. […] For each BrdU labeling, slices were first incubated with a mouse monoclonal anti-BrdU antibody (1/8,000, Becton Dickinson). For chromogenic immunodetection, sections were incubated during 2 h in biotin-conjugated species-specific secondary antibodies (1/400; Vector laboratories) followed by a peroxidase-avidin complex solution, to amplify the reaction. The peroxidase activity of immune complex was visualized with DAB staining using the VectaStain ABC kit according to the manufacturer’s protocol (Vector Laboratories).

T1 sequence (O95069 whole entry): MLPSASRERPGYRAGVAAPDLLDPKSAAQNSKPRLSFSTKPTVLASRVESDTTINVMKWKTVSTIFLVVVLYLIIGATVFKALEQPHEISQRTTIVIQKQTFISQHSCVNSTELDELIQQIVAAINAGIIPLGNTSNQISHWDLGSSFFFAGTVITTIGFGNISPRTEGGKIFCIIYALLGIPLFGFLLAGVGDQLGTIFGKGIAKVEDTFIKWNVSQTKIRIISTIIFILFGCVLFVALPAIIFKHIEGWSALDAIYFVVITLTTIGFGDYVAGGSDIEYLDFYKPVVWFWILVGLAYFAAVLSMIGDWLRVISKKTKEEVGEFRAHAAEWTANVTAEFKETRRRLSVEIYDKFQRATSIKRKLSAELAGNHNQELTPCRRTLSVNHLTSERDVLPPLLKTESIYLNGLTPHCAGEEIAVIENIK
hERG channel (IKR), sequence (Q12809 whole entry): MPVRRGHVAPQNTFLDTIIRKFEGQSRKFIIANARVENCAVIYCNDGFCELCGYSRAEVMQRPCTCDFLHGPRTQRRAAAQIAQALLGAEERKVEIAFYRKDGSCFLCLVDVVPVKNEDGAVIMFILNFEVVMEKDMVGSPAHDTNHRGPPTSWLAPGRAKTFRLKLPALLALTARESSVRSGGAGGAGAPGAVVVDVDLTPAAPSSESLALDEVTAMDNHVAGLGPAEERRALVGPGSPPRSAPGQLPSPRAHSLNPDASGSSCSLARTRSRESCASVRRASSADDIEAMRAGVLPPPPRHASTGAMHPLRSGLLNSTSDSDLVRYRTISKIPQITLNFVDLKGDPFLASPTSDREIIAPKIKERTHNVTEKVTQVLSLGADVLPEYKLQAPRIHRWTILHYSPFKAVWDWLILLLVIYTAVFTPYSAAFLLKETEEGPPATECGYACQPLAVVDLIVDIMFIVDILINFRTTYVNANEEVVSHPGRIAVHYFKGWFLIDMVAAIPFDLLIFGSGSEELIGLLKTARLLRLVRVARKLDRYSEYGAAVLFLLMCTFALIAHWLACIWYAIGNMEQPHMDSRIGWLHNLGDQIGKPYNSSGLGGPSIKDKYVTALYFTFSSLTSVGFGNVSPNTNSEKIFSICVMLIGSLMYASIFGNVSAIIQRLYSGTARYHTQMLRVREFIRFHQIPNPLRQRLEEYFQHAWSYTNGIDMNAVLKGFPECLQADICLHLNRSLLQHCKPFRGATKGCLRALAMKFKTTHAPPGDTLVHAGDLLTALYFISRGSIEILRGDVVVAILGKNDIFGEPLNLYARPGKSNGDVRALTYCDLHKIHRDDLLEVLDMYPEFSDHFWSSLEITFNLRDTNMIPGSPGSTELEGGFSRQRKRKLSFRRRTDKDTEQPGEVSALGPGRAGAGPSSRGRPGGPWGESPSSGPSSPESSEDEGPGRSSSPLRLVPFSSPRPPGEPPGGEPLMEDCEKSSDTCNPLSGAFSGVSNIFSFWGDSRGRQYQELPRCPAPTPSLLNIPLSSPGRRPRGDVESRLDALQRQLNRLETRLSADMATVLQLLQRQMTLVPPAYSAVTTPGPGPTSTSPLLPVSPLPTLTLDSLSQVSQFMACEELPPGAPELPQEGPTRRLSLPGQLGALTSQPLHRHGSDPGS
human-IKS current, sequence (P51787 whole entry): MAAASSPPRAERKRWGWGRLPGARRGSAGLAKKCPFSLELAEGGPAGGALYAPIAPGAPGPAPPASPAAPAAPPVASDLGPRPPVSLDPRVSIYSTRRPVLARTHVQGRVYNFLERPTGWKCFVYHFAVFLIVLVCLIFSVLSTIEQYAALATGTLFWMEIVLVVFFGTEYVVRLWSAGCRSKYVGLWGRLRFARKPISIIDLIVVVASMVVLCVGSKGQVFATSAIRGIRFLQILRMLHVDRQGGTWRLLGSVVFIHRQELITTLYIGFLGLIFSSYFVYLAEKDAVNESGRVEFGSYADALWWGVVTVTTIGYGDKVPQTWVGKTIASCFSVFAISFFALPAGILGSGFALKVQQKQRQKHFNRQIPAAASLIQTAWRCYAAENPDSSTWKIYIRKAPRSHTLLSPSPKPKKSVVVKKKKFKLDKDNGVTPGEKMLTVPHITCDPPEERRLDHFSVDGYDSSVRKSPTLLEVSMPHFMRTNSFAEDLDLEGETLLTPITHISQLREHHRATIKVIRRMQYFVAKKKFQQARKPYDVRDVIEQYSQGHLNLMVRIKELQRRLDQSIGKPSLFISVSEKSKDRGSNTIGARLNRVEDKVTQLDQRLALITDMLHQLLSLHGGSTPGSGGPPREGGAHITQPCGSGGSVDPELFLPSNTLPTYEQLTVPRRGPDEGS

Compound | IC50 (human TREK-1 channel [1]) [µM] | TREK-1 blockade at 100 nM compared with spadin (in words) (human TREK-1 channel [2]) | FST immobility time, subchronic treatment (C57Bl/6J mice [3]) [s] | FST immobility time, acute treatment (C57Bl/6J mice [3]) [s] | FST immobility time 1 h after injection (action duration) (C57Bl/6J mice [3]) [s] | FST immobility time 16 h after injection (action duration) (C57Bl/6J mice [3]) [s] | NSF latency to feed, subchronic treatment (C57Bl/6J mice [4]) [s] | also measured
Ac-APLPRWSGPIGVSWGLR-NH2 [analog 2] | 0.06 ± 0.00041 |  |  |  |  |  |  | 
Ac-[dR][dR][dW][dR]GG[dR][dP][dF][dA]GG[dA][dA][dA][dA][dR][dL]G[dW][dS][dV]G[dI][dP]G[dS][dW][dR][dP][dL][dP][dA][dA][dP][dP][dP][dP][dA][dD][dL][dR][dD][dQ]-NH2 [analog 12] |  | did not display a better efficacy |  |  |  |  |  | 
CC[C@H](C)[C@H](NC(=O)[C@@H]1CCCN1C(=O)CNC(=O)[C@H](CO)NC(=O)[C@H](Cc1c[nH]c2ccccc12)NC(=O)[C@H](CCCNC(=N)N)NC(=O)[C@@H]1CCCN1C(=O)[C@H](CC(C)C)NC(=O)[C@@H]1CCCN1C(=O)[C@H](C)NC(=O)[C@H](C)NC(=O)[C@@H]1CCCN1C(=O)[C@@H]1CCCN1C(=O)[C@@H]1CCCN1C(=O)[C@@H]1CCCN1C(=O)[C@H](C)NC(=O)[C@H](CC(=O)O)NC(=O)[C@H](CC(C)C)NC(=O)[C@H](CCCNC(=N)N)NC(=O)[C@H](CC(=O)O)NC(=O)[C@H](CCC(N)=O)NC(C)=O)C(=O)NCC(=O)N[C@H](C(=O)N[C@@H](CO)C(=O)N[C@@H](Cc1c[nH]c2ccccc12)C(=O)NCC(=O)N[C@@H](CC(C)C)C(=O)N[C@@H](CCCNC(=N)N)C(N)=O)C(C)C [analog 7] |  | bad inhibitor of TREK-1 channels |  |  |  |  |  | 
Ac-APPPPAAPLPRWSGPIGVSWGLR-NH2 [analog 9] |  | inhibitory effect close to that of spadin |  |  |  |  |  | 
Ac-QDRLDAPPPPAAPLPRWSGPIGVSWGLRAAAAGGAFPRGGRWRR-NH2 [analog 11] |  | reduced blocking effect on TREK-1 channels |  |  |  |  |  | 
CC[C@@H](C)[C@@H](NC(=O)CNC(=O)[C@H](NC(=O)[C@@H](CO)NC(=O)[C@@H](Cc1c[nH]c2ccccc12)NC(=O)CNC(=O)[C@@H](CC(C)C)NC(=O)[C@@H](CCCNC(=N)N)NC(C)=O)C(C)C)C(=O)N1CCC[C@@H]1C(=O)NCC(=O)N[C@H](CO)C(=O)N[C@H](Cc1c[nH]c2ccccc12)C(=O)N[C@H](CCCNC(=N)N)C(=O)N1CCC[C@@H]1C(=O)N[C@H](CC(C)C)C(=O)N1CCC[C@@H]1C(=O)N[C@H](C)C(=O)N[C@H](C)C(=O)N1CCC[C@@H]1C(=O)N1CCC[C@@H]1C(=O)N1CCC[C@@H]1C(=O)N1CCC[C@@H]1C(=O)N[C@H](C)C(=O)N[C@H](CC(=O)O)C(=O)N[C@H](CC(C)C)C(=O)N[C@H](CCCNC(=N)N)C(=O)N[C@H](CC(=O)O)C(=O)N[C@H](CCC(N)=O)C(N)=O [analog 8] (Ac-[dR][dL]G[dW][dS][dV]G[dI][dP]G[dS][dW][dR][dP][dL][dP][dA][dA][dP][dP][dP][dP][dA][dD][dL][dR][dD][dQ]-NH2) | 0.00995 ± 0.00085 | increased blockade effect when compared to spadin | 124.1 ± 10.53 | 83.60 ± 9.01 | 121.7 ± 5.2 | 129.1 ± 12.0 | 167.00 ± 22.96 | Tail withdrawal time (C57Bl/6J mice [5]): 13.85 ± 0.72 s
CC[C@@H](C)[C@@H](NC(=O)CNC(=O)[C@H](NC(=O)[C@@H](CO)NC(=O)[C@@H](Cc1c[nH]c2ccccc12)NC(=O)CNC(=O)[C@@H](CC(C)C)NC(=O)[C@@H](CCCNC(=N)N)NC(C)=O)C(C)C)C(=O)N1CCC[C@@H]1C(=O)NCC(=O)N[C@H](CO)C(=O)N[C@H](Cc1c[nH]c2ccccc12)C(=O)N[C@H](CCCNC(=N)N)C(=O)N1CCC[C@@H]1C(=O)N[C@H](CC(C)C)C(=O)N1CCC[C@@H]1C(=O)N[C@H](C)C(N)=O [analog 3] (Ac-[dR][dL]G[dW][dS][dV]G[dI][dP]G[dS][dW][dR][dP][dL][dP][dA]-NH2) | 0.0115 ± 0.00059 | increased blockade effect when compared to spadin | 114.9 ± 9.82 | 135.10 ± 8.11 | 123.4 ± 7.0 | 129.6 ± 12.7 | 143.88 ± 23.42 | Locomotor activity versus saline-treated mice (coming-and-going, climbing, total movements) (C57Bl/6J mice [6]): no significant difference; Amount recovered in a half brain (10 nmol i.v. (100 μL of 100 μM, caudal vein), 30 min after injection, acidic extraction, RP18 HPLC, standard curve 50-200 pmol, estimated): ~100 pmol; Yield to cross the blood-brain-barrier (10 nmol i.v., 30 min after injection, amount per brain relative to injected amount): ~2%; Amount recovered per brain (10 nmol i.v., 30 min after injection, extrapolated from a half brain): ~200 pmol; HPLC peak in brain extract 60 min after injection (10 nmol i.v., 60 min after injection): disappeared after 60 min; Tail withdrawal time (C57Bl/6J mice [5]): 11.32 ± 1.04 s; Effect on kaïnate-triggered seizures, 1 μg/kg (C57Bl/6J mice [7]; 1 μg/kg i.v., n = 10): no protective effect; Effect on kaïnate-triggered seizures, 10 μg/kg (C57Bl/6J mice [7]; 10 μg/kg i.v., n = 10, monitored 2 h): important protective effect; Number of mice reaching the two less severe seizure stages (immobility, head or neck movements) (C57Bl/6J mice [7]; 10 μg/kg i.v., n = 10, saline: at least 9 among 10, five died): two mice among 10; Effect on IKR current (hERG channel (IKR); HEK cells expressing hERG): did not modify currents; IKR tail current density at 0 mV in the presence of the analog (hERG channel (IKR); n = 5, mean ± SEM, control 204.59 ± 34.18 pA/pF): 212.99 ± 38.38 pA/pF; IKR current density at 0 mV, end of first pulse, in the presence of the analog (hERG channel (IKR); n = 5, mean ± SEM, control 225.14 ± 33.09 pA/pF): 224.48 ± 35.94 pA/pF; Effect on IKS current (human-IKS current; HEK-IKS cells): did not modify currents; IKS tail current density at 0 mV in the presence of the analog (human-IKS current; n = 5, mean ± SEM, control 8.33 ± 1.78 pA/pF): 8.33 ± 2.06 pA/pF; IKS current density at 0 mV, end of pulse, in the presence of the analog (human-IKS current; n = 5, mean ± SEM, control 17.65 ± 3.84 pA/pF): 17.58 ± 4.03 pA/pF
spadin [reference compound] |  |  | 123.70 ± 7.16 | 107.40 ± 5.05 | 102.4 ± 6.2 | 175.3 ± 7.5 | 151.11 ± 17.70 | FST immobility time 3 h after injection (action duration) (C57Bl/6J mice [3]; 3 h after injection (order of values follows order of times), saline 170.3 ± 4.5 s): 113.2 ± 5.0 s; FST immobility time 7 h after injection (action duration) (C57Bl/6J mice [3]; 7 h after injection (order of values follows order of times), saline 170.3 ± 4.5 s): 150.8 ± 6.5 s; Biological half-life time measured by the FST (C57Bl/6J mice [3]; from loss of FST efficacy with time after injection): around 6 h; Increase of the number of BrdU-positive cells in SGZ versus saline (factor) (C57Bl/6J mice [8]): ≥ 2
